Test results published in US9790169B2, “IDO inhibitors” (BRISTOL-MYERS SQUIBB COMPANY, priority 2015, dated 2017).

Target: human IDO1 (Homo sapiens, UniProt P14902)
Assay: Assessment of human IDO-1 inhibitory activity in HEK cells (human IDO1/HEK293 cells, kynurenine read-out with Ehrlich reagent, absorbance 490 nm)
Assay type: cell-based
Parameters: expressed in transfected cells
Conditions: HEK Human IDO-1 cellular assay
Outline: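 Kynurenine output from stably IDO1-transfected HEK293 cells (10,000/well, phenol red-free RPMI, 10% FBS) after 20 h compound exposure at 37 °C. The reaction was stopped with 0.2% TCA and heated 30 min at 50 °C, then the supernatant was mixed with Ehrlich reagent and read at 490 nm. IC50 was set against DMSO and a 500 nM reference standard as 0 and 100% inhibition.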

human IDO1, sequence (P14902 whole entry): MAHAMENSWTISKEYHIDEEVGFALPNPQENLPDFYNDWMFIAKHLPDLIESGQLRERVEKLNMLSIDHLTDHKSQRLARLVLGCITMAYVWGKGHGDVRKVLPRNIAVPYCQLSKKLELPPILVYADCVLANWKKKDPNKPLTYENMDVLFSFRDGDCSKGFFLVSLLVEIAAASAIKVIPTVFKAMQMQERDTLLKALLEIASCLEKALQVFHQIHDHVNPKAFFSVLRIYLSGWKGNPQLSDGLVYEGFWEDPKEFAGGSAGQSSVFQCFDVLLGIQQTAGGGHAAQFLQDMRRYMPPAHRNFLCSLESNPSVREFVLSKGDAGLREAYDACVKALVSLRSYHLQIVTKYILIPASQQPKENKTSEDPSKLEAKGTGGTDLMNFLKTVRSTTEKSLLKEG

IC50 [nM] | SMILES
< 50 | CC[C@@H](CC(=O)O)c1ccc(N2CCOC[C@@H]2C(C)C)c(Nc2ccc(C#N)cc2)c1 (single isomer, unassigned) [Example 83]
< 5 | CCOc1ccc(Nc2cc([C@H](CC)CC(=O)O)ccc2N(CC)C2CCOCC2)nc1 (single isomer, unassigned) [Example 522]
< 50 | CC[C@@H](CC(=O)O)c1ccc(N(CC)C2CCOCC2)c(NC(=O)Nc2ccc(F)cc2)c1 (single isomer, unassigned) [Example 490]
< 50 | CCOc1ccc(NC(=O)Nc2cc(C(COC)CC(=O)O)ccc2N(CC(C)C)C2CCCCC2)cc1 (single isomer, unassigned) [Example 1231, 3-(4-(Cyclohexyl(isobutyl)amino)-3-(3-(4-ethoxyphenyl)ureido)phenyl)-4-methoxybutanoic acid]
< 5 | CCC(CC(=O)O)c1cc(F)c(N(CC(C)C)CC(C)C)c(Nc2cnc(OC)nc2)c1 (single isomer, unassigned) [Example 104, 3-(4-(diisobutylamino)-3-fluoro-5-((2-methoxypyrimidin-5-yl)amino)phenyl) pentanoic acid]
> 50 | COCC(CC(=O)O)c1cc(F)c(N(CC(C)C)C2CCCCC2)c(NC(=O)Cc2cc(C)on2)c1 (single isomer, unassigned) [Example 1169, 3-(4-(cyclohexyl(isobutyl)amino)-3-fluoro-5-(2-(5-methylisoxazol-3-yl)acetamido)phenyl)-4-methoxybutanoic acid]
< 5 | CCC(CC(=O)O)c1ccc(N(CC(C)C)C(C)C)c(Nc2ccc(Cl)cc2)c1 (single isomer, unassigned) [Example 727, 3-(3-((4-Chlorophenyl)amino)-4-(isobutyl(isopropyl)amino)phenyl)pentanoic acid]
< 5 | CCOc1ccc(NC(=O)Nc2cc(C(COC)CC(=O)O)cc(F)c2N(CC(C)C)CC(C)C)c(F)c1 (single isomer, unassigned) [Example 1191, 3-(4-(Diisobutylamino)-3-(3-(4-ethoxy-2-fluorophenyl)ureido)-5-fluorophenyl)-4-methoxybutanoic acid]
> 50 | COc1ncc(Nc2cc(C(C)CC(=O)O)ccc2N2CCC[C@H]2C(C)(C)O)cn1 (single isomer, unassigned) [Example 801]
< 50 | CC[C@H](CC(=O)O)c1ccc(N(CC)C2CCOCC2)c(Nc2ccc3nc(C)sc3c2)c1 (single isomer, unassigned) [Example 524]
< 50 | Cc1cc(NC(=O)Nc2cc(C(CC(=O)O)C3CC3)ccc2N(CC(C)C)C2CCOCC2)no1 (single isomer, unassigned) [Example 1201 Enantiomer 1, 3-Cyclopropyl-3-(4-(isobutyl(tetrahydro-2H-pyran-4-yl)amino)-3-(3-(5-methylisoxazol-3-yl)ureido)phenyl)propanoic acid]
> 50 | CCOc1ncc(Nc2cc(C(CC(=O)O)c3ccccc3)ccc2N(CC)C2CCOCC2)cn1 (single isomer, unassigned) [Example 588, 3-(3-((2-Ethoxypyrimidin-5-yl)amino)-4-(ethyl(tetrahydro-2H-pyran-4-yl)amino)phenyl)-3-phenylpropanoic acid]
< 5 | Cc1ccc(NC(=O)Nc2cc(C(C)CC(=O)O)c(F)cc2N(CC(C)C)C2CCCCC2)cc1 (single isomer, unassigned) [Example 956, 3-(4-(Cyclohexyl(isobutyl)amino)-2-fluoro-5-(3-(p-tolyl)ureido)phenyl)butanoic acid]
< 50 | COCC(CC(=O)O)c1cc(F)c(N(CC(C)C)CC(C)C)c(NC(=O)Nc2ccc(OC(F)(F)F)cc2)c1 (single isomer, unassigned) [Example 1192, 3-(4-(Diisobutylamino)-3-fluoro-5-(3-(4-(trifluoromethoxy)phenyl)ureido)phenyl)-4-methoxybutanoic acid]
> 50 | CC[C@H](CC(=O)O)c1ccc(N(CC)C2CCOCC2)c(Nc2cn3ccnc3cn2)c1 (single isomer, unassigned) [Example 523]
< 50 | CCC(CC(=O)O)c1ccc(N2CCOC[C@H]2C(C)C)c(Nc2cnc(OC)nc2)c1 (single isomer, unassigned) [Example 906]
< 50 | CCC(CC(=O)O)c1cc(F)c(N(CC(C)C)CC(C)C)c(NC(=O)Nc2cc(C(F)(F)F)ccc2F)c1 (racemic) [Example 976, (+/−)-3-(4-(diisobutylamino)-3-fluoro-5-(3-(2-fluoro-5-(trifluoromethyl)phenyl)ureido)phenyl)pentanoic acid]
< 50 | CCCN(CC1CC1)c1ccc(C(CC)CC(=O)O)cc1Nc1ccc2nc(C)sc2c1 (single isomer, unassigned) [Example 658, 3-(4-((cyclopropylmethyl) (propyl)amino)-3-((2-methylbenzo[d]thiazol-6-yl)amino)phenyl)pentanoic acid]
< 5 | CC[C@H](CC(=O)O)c1ccc(N(CC)C2CCOCC2)c(NC(=O)Nc2ccc(OC)cc2F)c1 (single isomer, unassigned) [Example 530]

IC50 [nM] | SMILES
< 5 | CCC(CC(=O)O)c1ccc(N(CC(C)C)CC(C)C)c(NC(=O)Cc2ccc(C#N)cc2)c1 (racemic) [Example 950, (+/−)-3-(3-(2-(4-Cyanophenyl)acetamido)-4-(diisobutylamino)phenyl)pentanoic acid]
< 5 | CCC(CC(=O)O)c1ccc(N(CC(C)C)CC(C)C)c(NC(=O)Cc2ccc(C#N)cc2)c1 (single isomer, unassigned) [Example 1104, 3-(3-(2-(4-Cyanophenyl)acetamido)-4-(diisobutylamino)phenyl)pentanoic acid]
< 5 | CCC(CC(=O)O)c1ccc(N(CC)C2CCS(=O)(=O)CC2)c(Nc2ccc(C#N)cc2)c1 (single isomer, unassigned) [Example 337, 3-(3-((4-cyanophenyl)amino)-4-((1,1-dioxidotetrahydro-2H-thiopyran-4-yl)(ethyl)amino)phenyl) pentanoic acid]
> 50 | CCC(CC(=O)O)c1ccc(N2CCOC[C@H]2C(C)C)c(Nc2ccc3c(c2)OC(F)(F)O3)c1 (single isomer, unassigned) [Example 893]
> 50 | CCC(CC(=O)O)c1ccc(N(CC2CC2)C2CCOCC2)c(NC(=O)Nc2cc(C)on2)c1 (single isomer, unassigned) [Example 697, 3-(4-((Cyclopropylmethyl)(tetrahydro-2H-pyran-4-yl)amino)-3-(3-(5-methylisoxazol-3-yl)ureido)phenyl)pentanoic acid]
> 50 | CCOc1ncc(Nc2cc(C(CC)CC(=O)O)ccc2N2CCC[C@H]2C(C)(C)O)cn1 (single isomer, unassigned) [Example 839]
< 5 | CC(CC(=O)O)c1ccc(N(CC(C)(C)O)C2CCCCC2)c(Nc2ccc3c(c2)OC(F)(F)O3)c1 (single isomer, unassigned) [Example 53, 3-(4-(cyclohexyl(2-hydroxy-2-methylpropyl)amino)-3-((2,2-difluorobenzo[d][1,3]dioxol-5-yl)amino)phenyl)butanoic acid]
> 50 | COCC(CC(=O)O)c1ccc(N(CC(C)C)CC(C)C)c(NC(=O)Nc2cncnc2)c1 (racemic) [Example 996, (+/−)-3-(4-(Diisobutylamino)-3-(3-(pyrimidin-5-yl)ureido)phenyl)-4-methoxybutanoic acid]
< 50 | CC[C@@H](CC(=O)O)c1ccc(N(CC(C)C)CC(C)C)c(Nc2ccc(Cl)cc2)c1 (single isomer, unassigned) [Example 11]
> 50 | CC(C)C(CC(=O)O)c1ccc(N(C)C(C)(C)C)c(Nc2nc3ccccc3o2)c1 (single isomer, unassigned) [1008-1]
> 50 | Cc1ccc(CC(=O)Nc2cc(C(C)CC(=O)O)ccc2N(CC(C)C)CC(C)C)cc1 (single isomer, unassigned) [Example 953, 3-(4-(Diisobutylamino)-3-(2-(p-tolyl)acetamido)phenyl)butanoic acid]
< 5 | CCN(c1ccc(C(C)CC(=O)O)cc1Nc1ccc2c(c1)OC(F)(F)O2)C1CCOCC1 (single isomer, unassigned) [Example 616, 3-(3-((2,2-difluorobenzo[d] [1,3]dioxol-5-yl)amino)-4-(ethyl(tetrahydro-2H-pyran-4-yl)amino)phenyl)butanoic acid]
< 5 | CC[C@H](CC(=O)O)c1ccc(N(CC(C)(C)O)C2CCOCC2)c(Nc2ccc(Cl)cc2)c1 (single isomer, unassigned) [Example 203]
< 50 | CCC(CC(=O)O)c1ccc(N(CCC(C)C)C2CCCCC2)c(NC(=O)Cc2ccc(Cl)cc2F)c1 (racemic) [Example 1088]
< 5 | CCC(CC(=O)O)c1cc(NC(=O)Nc2ccc3c(c2)OCO3)c(N(CC(C)C)C2CCCCC2)cc1F (single isomer, unassigned) [Example 1111, 3-(5-(3-(Benzo[d][1,3]dioxol-5-yl)ureido)-4-(cyclohexyl(isobutyl)amino)-2-fluorophenyl)pentanoic acid]
> 50 | Cc1nc2ccc(Nc3cc(C(C)(C)CC(=O)O)ccc3N(CC(C)C)CC(C)C)cc2s1 [Example 146, 3-(4-(diisobutylamino)-3-((2-methylbenzo[d]thiazol-6-yl)amino)phenyl)-3-methylbutanoic acid]
< 50 | CCC(CC(=O)O)c1ccc(N2CCOC[C@H]2C(C)C)c(Nc2ccc3nc(C)sc3c2)c1 (single isomer, unassigned) [Example 892]
< 50 | CCN(c1ccc(C(CC(=O)O)c2ccccc2)cc1Nc1ccc(OC(F)F)cc1)C1CCOCC1 (single isomer, unassigned) [Example 583, 3-(3-((4-(difluoromethoxy)phenyl)amino)-4-(ethyl(tetrahydro-2H-pyran-4-yl)amino)phenyl)-3-phenylpropanoic acid]
< 5 | CC[C@H](CC(=O)O)c1ccc(N(CC)C2CCCCC2)c(Nc2ccc(C#N)cc2)c1 (single isomer, unassigned) [Example 289]
